Measured values taken from patent publication US12371428B2 (Exelixis, Inc., priority 2019, dated 2025).
Counter-ions that a name gives are not always drawn.

Legend:
[1] = molecular target: KDR (phospho-KDR, VEGF165-stimulated HUVEC cells) (Homo sapiens (Human), UniProt P35968); assay: KDR autophosphorylation ELISA in HUVEC cells (Example G); assay type: cell-based; conditions: cellular activity; KDR autophosphorylation ELISA in HUVEC cells
Outline: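 IC50 values derive from nonlinear curve fitting of phospho-KDR levels measured by ELISA and interpolated from a phosphoprotein standard. Beforehand, starved HUVECs received compound (0.3% DMSO vehicle) for one hour and were activated with VEGF165 at 100 ng/mL for 5 min.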

[2] = molecular target: Human MET (residues 956-1390) (Homo sapiens (Human), UniProt P08581); assay: Human Met kinase assay, HTRF KinEase (Example D-2); assay type: biochemical; conditions: protocol of Example D-2 (other compounds); read-out: c-Met IC50
Human MET (residues 956-1390), sequence (P08581 956-1390): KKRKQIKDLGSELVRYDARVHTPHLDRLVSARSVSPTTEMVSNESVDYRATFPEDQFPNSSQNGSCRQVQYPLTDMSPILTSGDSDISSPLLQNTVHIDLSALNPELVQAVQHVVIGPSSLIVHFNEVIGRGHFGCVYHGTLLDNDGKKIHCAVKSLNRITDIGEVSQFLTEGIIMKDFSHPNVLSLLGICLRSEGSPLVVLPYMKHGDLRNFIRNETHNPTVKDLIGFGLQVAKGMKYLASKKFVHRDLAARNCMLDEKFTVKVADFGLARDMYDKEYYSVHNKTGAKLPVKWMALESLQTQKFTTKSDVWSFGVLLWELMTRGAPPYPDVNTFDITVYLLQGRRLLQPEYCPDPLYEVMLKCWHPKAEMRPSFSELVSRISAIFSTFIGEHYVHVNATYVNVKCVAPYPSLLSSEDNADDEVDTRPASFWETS
Outline: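 HTRF KinEase assay on MET residues 956-1390 (0.1 ng/well) in buffer with 5 mM MgCl2, 1 mM DTT and 1 mM MnCl2, with biotinylated peptide substrate, ATP at Km, 10 compound concentrations and 3% DMSO final, run 40 min at room temperature. The […] signal was normalized to DMSO and to 1 μM reference compound, and IC50 came from a 4-parameter logistic fit.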

[3] = molecular target: Human MER (residues 528-999) (Homo sapiens (Human), UniProt Q12866); assay: Human Mer kinase assay, HTRF KinEase (Example C-2); assay type: biochemical; conditions: protocol of Example C-2 (other compounds)
Human MER (residues 528-999), sequence (Q12866 528-999): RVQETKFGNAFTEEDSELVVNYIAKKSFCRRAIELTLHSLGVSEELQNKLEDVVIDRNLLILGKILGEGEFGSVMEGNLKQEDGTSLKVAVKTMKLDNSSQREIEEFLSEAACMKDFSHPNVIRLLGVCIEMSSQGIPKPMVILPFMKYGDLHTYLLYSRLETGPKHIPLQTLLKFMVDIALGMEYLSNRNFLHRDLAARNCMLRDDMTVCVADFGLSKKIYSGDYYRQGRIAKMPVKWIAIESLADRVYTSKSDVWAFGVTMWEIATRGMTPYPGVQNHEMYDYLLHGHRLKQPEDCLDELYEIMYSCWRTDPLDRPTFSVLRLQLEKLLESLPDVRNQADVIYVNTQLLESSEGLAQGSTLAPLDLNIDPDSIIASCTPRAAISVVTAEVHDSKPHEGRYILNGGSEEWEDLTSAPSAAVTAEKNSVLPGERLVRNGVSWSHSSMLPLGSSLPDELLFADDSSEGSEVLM
Outline: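 HTRF KinEase TK assay with MER 528-999 (1 ng/well) in enzymatic buffer plus 5 mM MgCl2 and 1 mM DTT, biotinylated peptide substrate and ATP at Km (40 μM), 3% DMSO final, 60 min at room temperature. Stopped with EDTA detection mix (SA-XL665, TK antibody-Eu3+), read at 665/620 nm after 60 min; IC50 from 10-point 4-parameter fit, normalized to DMSO and 1 μM reference.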

KDR (phospho-KDR, VEGF165-stimulated HUVEC cells), sequence (P35968 20-1356): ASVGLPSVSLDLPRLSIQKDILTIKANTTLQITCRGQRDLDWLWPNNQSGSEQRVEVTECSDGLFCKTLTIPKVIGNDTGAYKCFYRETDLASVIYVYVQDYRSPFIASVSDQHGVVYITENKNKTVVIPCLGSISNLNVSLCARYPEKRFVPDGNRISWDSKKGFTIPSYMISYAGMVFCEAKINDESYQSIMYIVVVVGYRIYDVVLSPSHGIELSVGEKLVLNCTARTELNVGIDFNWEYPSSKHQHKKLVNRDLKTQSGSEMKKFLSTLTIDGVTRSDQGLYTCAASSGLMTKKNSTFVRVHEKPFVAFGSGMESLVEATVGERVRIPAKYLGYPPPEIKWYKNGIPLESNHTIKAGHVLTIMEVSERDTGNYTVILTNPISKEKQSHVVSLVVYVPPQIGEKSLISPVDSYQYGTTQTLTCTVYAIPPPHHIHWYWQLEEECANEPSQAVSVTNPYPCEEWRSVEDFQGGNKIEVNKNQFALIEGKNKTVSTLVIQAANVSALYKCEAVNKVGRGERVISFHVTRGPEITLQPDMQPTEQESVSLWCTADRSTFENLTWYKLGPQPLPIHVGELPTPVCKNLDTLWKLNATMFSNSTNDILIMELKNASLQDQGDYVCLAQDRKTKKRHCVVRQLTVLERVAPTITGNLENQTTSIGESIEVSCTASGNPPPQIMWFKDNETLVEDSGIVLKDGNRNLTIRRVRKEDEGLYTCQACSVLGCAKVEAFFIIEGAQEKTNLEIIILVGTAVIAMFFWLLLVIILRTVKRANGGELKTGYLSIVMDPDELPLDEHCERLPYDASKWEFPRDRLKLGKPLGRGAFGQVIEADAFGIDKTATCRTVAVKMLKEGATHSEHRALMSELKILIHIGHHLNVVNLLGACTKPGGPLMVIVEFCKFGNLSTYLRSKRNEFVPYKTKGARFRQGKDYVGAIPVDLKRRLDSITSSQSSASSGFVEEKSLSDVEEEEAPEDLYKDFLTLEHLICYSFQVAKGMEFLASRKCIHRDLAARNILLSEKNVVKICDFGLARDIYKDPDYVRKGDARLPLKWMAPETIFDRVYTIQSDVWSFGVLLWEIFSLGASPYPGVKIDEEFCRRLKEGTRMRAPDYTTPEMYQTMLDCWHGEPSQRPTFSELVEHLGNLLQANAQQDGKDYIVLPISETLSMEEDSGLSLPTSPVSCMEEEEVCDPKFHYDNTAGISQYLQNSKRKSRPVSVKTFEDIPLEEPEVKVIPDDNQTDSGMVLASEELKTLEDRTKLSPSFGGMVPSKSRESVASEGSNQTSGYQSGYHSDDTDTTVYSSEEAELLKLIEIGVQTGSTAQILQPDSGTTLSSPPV

| SMILES | IC50 [1] | IC50 [2] | IC50 [3] |
| --- | --- | --- | --- |
| COc1ccc2nccc(Oc3ccc(NC(=O)c4n[nH]c(C)c(-c5ccc(F)cc5C)c4=O)cc3F)c2n1 [Compound 230, N-[3-Fluoro-4-[(6-methoxy-1,5-naphthyridin-4-yl)oxy]phenyl]-5-(4-fluoro-2-methylphenyl)-6-methyl-4-oxo-1H-pyridazine-3-carboxamide] | 0.1 to 0.3 µM | < 0.1 µM | < 0.1 µM |
| CCc1nc(C)c(-c2ccc(F)cc2)c(O)c1C(=O)Nc1ccc(Oc2ccnc3cc(OC)cnc23)cc1 [Compound 188, 2-Ethyl-5-(4-fluorophenyl)-4-hydroxy-N-[4-[(7-methoxy-1,5-naphthyridin-4-yl)oxy]phenyl]-6-methylpyridine-3-carboxamide] | < 0.1 µM | < 0.1 µM | < 0.1 µM |
| COCc1nc(C)c(-c2ccc(F)cc2C)c(O)c1C(=O)Nc1ccc(Oc2ccnc3cc(OC)cnc23)cc1 [Compound 194, 5-(4-Fluoro-2-methylphenyl)-4-hydroxy-2-(methoxymethyl)-N-[4-[(7-methoxy-1,5-naphthyridin-4-yl)oxy]phenyl]-6-methylpyridine-3-carboxamide] | < 0.1 µM | < 0.1 µM | < 0.1 µM |
| COc1cc2nccc(Oc3ccc(NC(=O)c4cn(C(C)C)c(C)c(-c5cccc(F)c5)c4=O)cc3F)c2nc1OC [Compound 30, N-[4-[(6,7-Dimethoxy-1,5-naphthyridin-4-yl)oxy]-3-fluorophenyl]-5-(3-fluorophenyl)-6-methyl-4-oxo-1-propan-2-ylpyridine-3-carboxamide hydrochloride] | > 0.3 µM | < 0.1 µM | < 0.1 µM |
| CCc1nc(C)c(-c2ccc(F)cc2)c(O)c1C(=O)Nc1ccc(Oc2ccnc3cc(OC)c(OC)nc23)cc1 [Compound 197, N-[4-[(6,7-Dimethoxy-1,5-naphthyridin-4-yl)oxy]phenyl]-2-ethyl-5-(4-fluorophenyl)-4-hydroxy-6-methylpyridine-3-carboxamide] | < 0.1 µM | < 0.1 µM | < 0.1 µM |
| COCCOc1nc2c(Oc3ccc(NC(=O)c4ccc(C)n(-c5ccc(F)cc5)c4=O)cc3F)ccnc2cc1OC [Compound 227, N-[3-Fluoro-4-[[7-methoxy-6-(2-methoxyethoxy)-1,5-naphthyridin-4-yl]oxy]phenyl]-1-(4-fluorophenyl)-6-methyl-2-oxopyridine-3-carboxamide] | < 0.1 µM | < 0.1 µM | < 0.1 µM |
| COc1cc2nccc(Oc3ccc(NC(=O)c4cn(C)cc(-c5ccccc5)c4=O)cc3F)c2nc1OC [Compound 33, N-[4-[(6,7-Dimethoxy-1,5-naphthyridin-4-yl)oxy]-3-fluorophenyl]-1-methyl-4-oxo-5-phenylpyridine-3-carboxamide hydrochloride] | < 0.1 µM | < 0.1 µM | < 0.1 µM |
| CCc1nc(C)c(-c2ccc(F)cc2C)c(O)c1C(=O)Nc1ccc(Oc2ccnc3ccc(OC)nc23)c(F)c1 [Compound 206, 2-Ethyl-N-[3-fluoro-4-[(6-methoxy-1,5-naphthyridin-4-yl)oxy]phenyl]-5-(4-fluoro-2-methylphenyl)-4-hydroxy-6-methylpyridine-3-carboxamide] | < 0.1 µM | 0.1 to 0.3 µM | < 0.1 µM |
| COCc1nc(C)c(-c2ccc(F)cc2C)c(O)c1C(=O)Nc1ccc(Oc2ccnc3cc(OC)cnc23)c(F)c1 [Compound 193, N-[3-Fluoro-4-[(7-methoxy-1,5-naphthyridin-4-yl)oxy]phenyl]-5-(4-fluoro-2-methylphenyl)-4-hydroxy-2-(methoxymethyl)-6-methylpyridine-3-carboxamide] | < 0.1 µM | < 0.1 µM | < 0.1 µM |
| COCCOc1nc2c(Oc3ccc(NC(=O)c4cn(C)c(CO)c(-c5ccc(F)cc5)c4=O)cc3F)ccnc2cc1OC [Compound 228, N-[3-Fluoro-4-[[7-methoxy-6-(2-methoxyethoxy)-1,5-naphthyridin-4-yl]oxy]phenyl]-5-(4-fluorophenyl)-6-(hydroxymethyl)-1-methyl-4-oxopyridine-3-carboxamide] | > 0.3 µM | < 0.1 µM | < 0.1 µM |
| COc1cc2nccc(Oc3ccc(NC(=O)c4c(C)ncc(-c5ccc(F)cc5)c4O)cc3)c2nc1OC [Compound 235, N-[4-[(6,7-Dimethoxy-1,5-naphthyridin-4-yl)oxy]phenyl]-5-(4-fluorophenyl)-4-hydroxy-2-methylpyridine-3-carboxamide] | < 0.1 µM | < 0.1 µM | < 0.1 µM |
| COc1ccc(-c2c(C)n(C(C)C)cc(C(=O)Nc3ccc(Oc4ccnc5cc(OC)c(OC)nc45)c(F)c3)c2=O)cc1 [Compound 31, N-[4-[(6,7-dimethoxy-1,5-naphthyridin-4-yl)oxy]-3-fluorophenyl]-5-(4-methoxyphenyl)-6-methyl-4-oxo-1-propan-2-ylpyridine-3-carboxamide hydrochloride] | > 0.3 µM | < 0.1 µM | < 0.1 µM |
| COCCOc1nc2c(Oc3ccc(NC(=O)c4cn(C)c(C)c(-c5ccc(F)cc5C)c4=O)cc3F)ccnc2cc1OC [Compound 200, N-[3-Fluoro-4-[[7-methoxy-6-(2-methoxyethoxy)-1,5-naphthyridin-4-yl]oxy]phenyl]-5-(4-fluoro-2-methylphenyl)-1,6-dimethyl-4-oxopyridine-3-carboxamide] | < 0.1 µM | < 0.1 µM | < 0.1 µM |

Continued, values first:

| IC50 [1] | IC50 [2] | IC50 [3] | SMILES |
| --- | --- | --- | --- |
| > 0.3 µM | < 0.1 µM | < 0.1 µM | COc1cnc2c(Oc3ccc(NC(=O)c4c(C)ncn(-c5ccc(F)cc5)c4=O)cc3F)ccnc2c1 [Compound 256, N-[3-Fluoro-4-[(7-methoxy-1,5-naphthyridin-4-yl)oxy]phenyl]-1-(4-fluorophenyl)-4-methyl-6-oxopyrimidine-5-carboxamide] |
| < 0.1 µM | 0.1 to 0.3 µM | < 0.1 µM | CCc1nc(C)c(-c2ccc(F)cc2C)c(O)c1C(=O)Nc1ccc(Oc2ccnc3cc(OC)cnc23)c(F)c1 [Compound 204, 2-Ethyl-N-[3-fluoro-4-[(7-methoxy-1,5-naphthyridin-4-yl)oxy]phenyl]-5-(4-fluoro-2-methylphenyl)-4-hydroxy-6-methylpyridine-3-carboxamide] |
| < 0.1 µM | < 0.1 µM | < 0.1 µM | COc1cnc2c(Oc3ccc(NC(=O)c4c(C)nc(C)c(-c5ccc(F)cc5C)c4O)cc3F)ccnc2c1 [Compound 178, N-[3-Fluoro-4-[(7-methoxy-1,5-naphthyridin-4-yl)oxy]phenyl]-5-(4-fluoro-2-methylphenyl)-4-hydroxy-2,6-dimethylpyridine-3-carboxamide] |
| < 0.1 µM | < 0.1 µM | < 0.1 µM | COc1cnc2c(Oc3ccc(NC(=O)c4cnc(CO)c(-c5ccc(F)cc5)c4O)cc3F)ccnc2c1 [Compound 217, N-[3-Fluoro-4-[(7-methoxy-1,5-naphthyridin-4-yl)oxy]phenyl]-5-(4-fluorophenyl)-4-hydroxy-6-(hydroxymethyl)pyridine-3-carboxamide] |
| < 0.1 µM | < 0.1 µM | < 0.1 µM | COc1ccc2nccc(Oc3ccc(NC(=O)c4c(C)ncc(-c5ccc(F)cc5)c4O)cc3F)c2n1 [Compound 242, N-[3-Fluoro-4-[(6-methoxy-1,5-naphthyridin-4-yl)oxy]phenyl]-5-(4-fluorophenyl)-4-hydroxy-2-methylpyridine-3-carboxamide] |
| > 0.3 µM | < 0.1 µM | < 0.1 µM | COc1cnc2c(Oc3ccc(NC(=O)c4nn(C)c(C)c(-c5ccc(F)cc5)c4=O)cc3F)ccnc2c1 [Compound 250, N-[3-Fluoro-4-[(7-methoxy-1,5-naphthyridin-4-yl)oxy]phenyl]-5-(4-fluorophenyl)-1,6-dimethyl-4-oxopyridazine-3-carboxamide] |
| < 0.1 µM | < 0.1 µM | < 0.1 µM | COc1cc2nccc(Oc3ccc(NC(=O)c4c(C)ncc(-c5ccc(F)cc5)c4O)cc3F)c2nc1OC [Compound 237, N-[4-[(6,7-Dimethoxy-1,5-naphthyridin-4-yl)oxy]-3-fluorophenyl]-5-(4-fluorophenyl)-4-hydroxy-2-methylpyridine-3-carboxamide] |
| < 0.1 µM | 0.1 to 0.3 µM | < 0.1 µM | COc1ccc2nccc(Oc3ccc(NC(=O)c4c(C)nc(C)n(-c5ccc(F)cc5)c4=O)cc3F)c2n1 [Compound 233, N-[3-Fluoro-4-[(6-methoxy-1,5-naphthyridin-4-yl)oxy]phenyl]-1-(4-fluorophenyl)-2,4-dimethyl-6-oxopyrimidine-5-carboxamide] |
| > 0.3 µM | < 0.1 µM | < 0.1 µM | COc1cnc2c(Oc3ccc(NC(=O)c4c(C)n(C)cc(-c5ccc(F)cc5)c4=O)cc3F)ccnc2c1 [Compound 239, N-[3-Fluoro-4-[(7-methoxy-1,5-naphthyridin-4-yl)oxy]phenyl]-5-(4-fluorophenyl)-1,2-dimethyl-4-oxopyridine-3-carboxamide] |
